Here are results for four compounds from patent US7056922B2, “Acylamino cyclopropane derivatives” (Pfizer Inc, priority 2000, dated 2006).

Molecules are shown by their SMILES. Where a name gives a salt, the structure may show the parent alone.

Assay [1] concerns the target dopamine D2 receptor (Homo sapiens, UniProt P14416). Put plainly: Dopamine D2 receptor binding (Binding data table).
Assay [2] has as its target human dopamine D3 receptor (Homo sapiens, UniProt P35462). Put plainly: Displacement of [3H] 7 OH-DPAT binding to membranes of CHO cells expressing human dopamine D3 receptor. The following applies: [3H] 7 OH-DPAT 0.4 nM, CHO cell membranes, cloned human D3 receptor. The protocol: The inhibition constants (Ki) of test compounds were measured by displacement of [^3H] 7 OH-DPAT binding to membrane preparations from Chinese hamster ovary cells expressing human dopamine D3 receptor. Cells expressing the human D3 receptor were homogenized with Polytron and centrifuged for 10 min at 4° C. at 20,000 RPM in a Sorvall RCB5 centrifuge with a SS34 rotor. After repeating the washing once more, the pellet was resuspended in buffer consisting of 120 mM NaCl, 5 mM KCl, 5 mM MgCl2, 2 mM CaCl2 and 50 mM tris, pH 7.4 and the protein content determined using bovine serum albumin as a standard (Bradford, M. M. (1976) Anal. Biochem. 72, 248–254). Compounds at varying concentrations were incubated with the membrane preparations in the presence of 0.4 nM [^3H] 7 OH-DPAT. The assay was incubated for 15 min at 37° C. and the reaction was terminated by rapid filtration with 50 mM Tris pH 7.4, through GF/B filters previously soaked in 0.5% polyethyleneimine. Filters were dried overnight and counted in Betaplate Scintillation counter. Non-specific binding was defined as the radioligand binding remaining after incubation in the presence of 10 μM butacomol. For competition curves, seven concentrations (single log dilutions) of competing unlabeled, compounds were used. Competition curves were analysed simultaneously whenever possible using non-linear least-squares fitting procedures, capable of fitting one, two or three site models.
Background: In a radioligand displacement assay an active substance lowers the binding of a labelled ligand.

Sequence of dopamine D2 receptor (P14416 whole entry, species assumed): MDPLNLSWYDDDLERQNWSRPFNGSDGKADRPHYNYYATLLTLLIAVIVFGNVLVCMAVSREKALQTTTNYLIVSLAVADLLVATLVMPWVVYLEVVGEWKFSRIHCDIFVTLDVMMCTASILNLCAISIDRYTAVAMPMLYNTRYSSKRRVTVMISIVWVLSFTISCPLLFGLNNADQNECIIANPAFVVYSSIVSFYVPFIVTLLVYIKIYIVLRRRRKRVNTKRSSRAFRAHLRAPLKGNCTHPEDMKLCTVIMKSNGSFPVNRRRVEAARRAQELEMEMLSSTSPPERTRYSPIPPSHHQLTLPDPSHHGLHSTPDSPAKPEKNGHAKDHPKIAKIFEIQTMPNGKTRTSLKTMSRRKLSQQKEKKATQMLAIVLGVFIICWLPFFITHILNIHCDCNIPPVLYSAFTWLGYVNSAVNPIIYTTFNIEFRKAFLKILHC
Sequence of human dopamine D3 receptor (P35462 whole entry): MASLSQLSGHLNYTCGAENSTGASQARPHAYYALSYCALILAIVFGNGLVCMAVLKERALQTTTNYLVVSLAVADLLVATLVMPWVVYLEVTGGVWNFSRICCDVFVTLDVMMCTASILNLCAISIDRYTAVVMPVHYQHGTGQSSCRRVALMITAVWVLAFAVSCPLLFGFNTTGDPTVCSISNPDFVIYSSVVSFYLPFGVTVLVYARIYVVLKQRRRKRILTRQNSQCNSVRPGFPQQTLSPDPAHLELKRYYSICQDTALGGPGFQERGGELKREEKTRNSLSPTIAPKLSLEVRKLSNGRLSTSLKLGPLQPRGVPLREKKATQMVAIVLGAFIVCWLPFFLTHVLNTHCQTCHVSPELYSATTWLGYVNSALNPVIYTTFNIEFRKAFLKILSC

For `Cc1cccc(C)c1C(=O)NCC1CC1CN1CCN(c2cc(C(F)(F)F)nc(C(C)(C)C)n2)CC1` (racemic) [N-{(Z)-2-[4-(2-tert-Butyl-6-trifluoromethyl-pyrimidin-4-yl)-piperazin-1-ylmethyl]-cyclopropylmethyl}-2,6-dimethyl-benzamide, dihydrochloride salt], the Ki (commonly a dissociation constant, usually derived from enzyme kinetics or from competition with a known ligand) in assay [1] is above 770 nM; in assay [2], 16 nM.

With `CC(C)(C)c1nc(N2CCN(CC3CC3CNC(=O)c3ccc(Cl)cc3)CC2)cc(C(F)(F)F)n1` (racemic) [[Z](+/−)N-{2-[4-(2-tert-Butyl-6-trifluoromethyl-pyrimidin-4-yl)-piperazin-1-ylmethyl]-cyclopropylmethyl}-4-chloro-benzamide], the Ki was above 740 nM in assay [1] and 31 nM in assay [2].

For the compound `Cc1cccc(C)c1C(=O)NCC1CC1CN1CCN(c2cccc(C(F)(F)F)c2)CC1` (single isomer, unassigned) [2,6-Dimethyl-N-{(E)-2-[4-(3-trifluoromethyl-phenyl)-piperazin-1-ylmethyl]-cyclopropylmethyl}benzamide], the Ki amounted to 76 nM in assay [1] and 2 nM in assay [2].

For `Cc1cccc(C)c1C(=O)NCC1CC1CN1CCN(c2cccc(C(F)(F)F)c2)CC1` (single isomer, unassigned) [2,6-Dimethyl-N-{(Z)-2-[4-(3-trifluoromethyl-phenyl)-piperazin-1-ylmethyl]-cyclopropylmethyl}benzamide], the results for the Ki in assay [1] and in assay [2] were 460 nM and 5 nM, respectively.
